Measurements from patent US20240376097A1, “BCL-2 Inhibitor” (BeiGene Ltd., priority 2020, published 2024).
Like-named read-outs stand apart in the source and are kept apart here.

How the values were obtained:
[1] = target: Recombinant human Bcl-2 protein (Homo sapiens (Human), UniProt P10415); experiment: Bcl-2 TR-FRET Assay; type: binding
How it was run: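 In pH 7.5 phosphate buffer containing NaCl, EDTA, Tween-20 and BSA, 0.05 nM Bcl-2 saw serially diluted compound for 0.5 h before 0.5 nM FITC-Bak peptide was added. Signal ratio at 520/490 nm after 1 h yielded IC50.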

[2] = target: recombinant human Bcl-2-G101V protein (Homo sapiens (Human), UniProt P10415, G101V); experiment: Bcl-2-G101V TR-FRET Assay; type: binding; settings: Bcl-2 G101V mutant, TR-FRET; read-out: Biochemical assay (IC50, nM) Bcl-2 G101V
How it was run: (§1)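 IC50 values derive from four-parameter logistic fitting of percent inhibition data. That inhibition of ligand binding to Bcl-2-G101V is computed from the 490 nm/520 nm TR-FRET ratio under 337 nm excitation, over a rising compound concentration series.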

[3] = system: recombinant human Bcl-2-G101V protein; experiment: Bcl-2-G101V TR-FRET Assay; type: binding; settings: ratio of biochemical IC50 Bcl-2 G101V / Bcl-2 WT
How it was run: as §1

[4] = system: RS4;11 (BCL-2 dependent acute lymphoblastic leukemia cell line); experiment: RS4;11 Cell Proliferation Assay; type: cell-based; settings: Homo sapiens, RS4-11, RS4;11 cells, read-out: Cellular proliferation assay (IC50, nM) RS4
How it was run: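 Viability measured via CellTiter-Glo luminescence after a 48 h, 37 °C exposure to compounds (10 points, highest 1 μM). Seeding was 50,000 RS4;11 cells per well in 10% FBS RPMI-1640; IC50 given as mean.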

[5] = system: BCL-2 G101V knock-in cell line H96 (derive from RS4;11); experiment: Bcl 2-G101V Knock-In RS4;11 Cell Proliferation Assay; type: cell-based; settings: Homo sapiens, RS4;11 Bcl-2 G101V knock-in clone H96, 48 hrs, CellTiter-GLO, read-out: Cellular proliferation assay (IC50, nM) RS4
How it was run: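 CellTiter-Glo luminescence after 48 h, 37 °C compound treatment (10 concentrations, maximum 1 μM or 10 μM) gave mean IC50 values. Cells were 50,000 per well of H96, a BCL2-G101V knock-in single clone derived from RS4;11 by Cas9 editing.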

[6] = target: recombinant human Bcl-2 D103Y protein (Homo sapiens (Human), UniProt P10415, D103Y); experiment: Bcl-2-D103Y Biochemical Assay (TR-FRET); type: binding; settings: for IC50: TR-FRET, FITC labeled Bak peptide; for Ratio of Bcl-2 D103Y/Bcl-2 WT: ratio of IC50
How it was run: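 Compounds titrated against the Bcl-2 D103Y–ligand interaction; inhibition derived from the TR-FRET emission ratio 490 nm/520 nm after 337 nm excitation. Four-parameter logistic fitting gave IC50.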

[7] = Bcl-2 wild type, TR-FRET, read-out: Biochemical assay (IC50, nM) Bcl-2 WT
[8] = wild type Bcl-2, unit inferred, read-out: Bcl-2 WT

SMILES	IC50 [1, 7] [nM]	IC50 [1, 8] [nM]	IC50 [2] [nM]	Ratio of Bcl-2 G101V/WT [3]	IC50 [4] [nM]	IC50 [5] [nM]	IC50 [6] [nM]	Ratio of Bcl-2 D103Y/Bcl-2 WT [6]
CC(C)c1ccccc1C1CN(Cc2ccc(N(C)C)cc2)CCN1C1CC2(CCN(c3ccc(C(=O)NS(=O)(=O)c4ccc(NC[C@H]5CC[C@](C)(O)CC5)c([N+](=O)[O-])c4)c(Oc4cnc5[nH]ccc5c4)c3)CC2)C1 (some centres unmarked) [Example 114, 2-((1H-pyrrolo[2,3-b]pyridin-5-yl)oxy)-4-(2-(4-(4-(dimethylamino)benzyl)-2-(2-isopropylphenyl)piperazin-1-yl)-7-azaspiro[3.5]nonan-7-yl)-N-((4-((((1r,4r)-4-hydroxy-4-methylcyclohexyl)methyl)amino)-3-nitrophenyl)sulfonyl)benzamide]	0.12	0.12	0.83	6.9	0.6	3.65	0.4	3.4
CC(C)c1ccccc1C1CN(Cc2cccc3c2OCO3)CCN1C1CC2(CCN(c3ccc(C(=O)NS(=O)(=O)c4ccc(NC[C@H]5CC[C@](C)(O)CC5)c([N+](=O)[O-])c4)c(Oc4cnc5[nH]ccc5c4)c3)CC2)C1 (some centres unmarked) [Example 115, 2-((1H-pyrrolo[2,3-b]pyridin-5-yl)oxy)-4-(2-(4-(benzo[d][1,3]dioxol-4-ylmethyl)-2-(2-isopropylphenyl)piperazin-1-yl)-7-azaspiro[3.5]nonan-7-yl)-N-((4-((((1r,4r)-4-hydroxy-4-methylcyclohexyl)methyl)amino)-3-nitrophenyl)sulfonyl)benzamide]	0.097	0.097	0.37	3.8	0.42	2.3	0.57	5.9
COc1cc(CN2CCN(C3CC4(CCN(c5ccc(C(=O)NS(=O)(=O)c6ccc(NC[C@H]7CC[C@](C)(O)CC7)c([N+](=O)[O-])c6)c(Oc6cnc7[nH]ccc7c6)c5)CC4)C3)C(c3ccccc3C(C)C)C2)ccc1F (some centres unmarked) [Example 121, 2-((1H-pyrrolo[2,3-b]pyridin-5-yl)oxy)-4-(2-(4-(4-fluoro-3-methoxybenzyl)-2-(2-isopropylphenyl)piperazin-1-yl)-7-azaspiro[3.5]nonan-7-yl)-N-((4-((((1r,4r)-4-hydroxy-4-methylcyclohexyl)methyl)amino)-3-nitrophenyl)sulfonyl)benzamide]	0.28	0.28	1.1	3.8	0.24	1.13	0.42	1.5
CC(C)c1ccccc1C1CN(Cc2ccc3c(c2)OCO3)CCN1C1CC2(CCN(c3ccc(C(=O)NS(=O)(=O)c4ccc(NC[C@H]5CC[C@](C)(O)CC5)c([N+](=O)[O-])c4)c(Oc4cnc5[nH]ccc5c4)c3)CC2)C1 (some centres unmarked) [Example 122, 2-((1H-pyrrolo[2,3-b]pyridin-5-yl)oxy)-4-(2-(4-(benzo[d][1.3]dioxol-5-ylmethyl)-2-(2-isopropylphenyl)piperazin-1-yl)-7-azaspiro[3.5]nonan-7-yl)-N-((4-((((1r,4r)-4-hydroxy-4-methylcyclohexyl)methyl)amino)-3-nitrophenyl)sulfonyl)benzamide]	0.19	0.19	0.92	5	0.3	2.2	0.47	2.5
COc1ccc(CN2CCN(C3CC4(CCN(c5ccc(C(=O)NS(=O)(=O)c6ccc(NC[C@H]7CC[C@](C)(O)CC7)c([N+](=O)[O-])c6)c(Oc6cnc7[nH]cc(Cl)c7c6)c5)CC4)C3)[C@H](c3ccccc3C(C)C)C2)cc1 [Example 123, 2-((3-chloro-1H-pyrrolo[2,3-b]pyridin-5-yl)oxy)-N-((4-((((1r,4r)-4-hydroxy-4-methylcyclohexyl)methyl)amino)-3-nitrophenyl)sulfonyl)-4-(2-((R)-2-(2-isopropylphenyl)-4-(4-methoxybenzyl)piperazin-1-yl)-7-azaspiro[3.5]nonan-7-yl) benzamide]	0.54	0.54	1.8	3.3	0.25	1.1	0.71	1.3
CCOc1cc(CN2CCN(C3CC4(CCN(c5ccc(C(=O)NS(=O)(=O)c6ccc(NC[C@H]7CC[C@](C)(O)CC7)c([N+](=O)[O-])c6)c(Oc6cnc7[nH]ccc7c6)c5)CC4)C3)C(c3ccccc3C(C)C)C2)ccc1OC (some centres unmarked) [Example 124, 2-((1H-pyrrolo[2,3-b]pyridin-5-yl)oxy)-4-(2-(4-(3-ethoxy-4-methoxybenzyl)-2-(2-isopropylphenyl)piperazin-1-yl)-7-azaspiro[3.5]nonan-7-yl)-N-((4-((((1r,4r)-4-hydroxy-4-methylcyclohexyl)methyl)amino)-3-nitrophenyl)sulfonyl)benzamide]	0.15	0.15	0.51	3.4	0.24	1.2	0.21	1.4
COc1ccc(CN2CCN(C3CC4(CCN(c5ccc(C(=O)NS(=O)(=O)c6ccc(NC[C@H]7CC[C@](C)(O)CC7)c([N+](=O)[O-])c6)c(Oc6cc7c(F)c[nH]c7nc6C)c5)CC4)C3)[C@H](c3ccccc3C(C)C)C2)cc1 [Example 125, 2-((3-fluoro-6-methyl-1H-pyrrolo [2,3-b]pyridin-5-yl)oxy)-N-((4-((((1r,4r)-4-hydroxy-4-methylcyclohexyl)methyl)amino)-3-nitrophenyl)sulfonyl)-4-(2-((R)-2-(2-isopropylphenyl)-4-(4-methoxybenzyl)piperazin-1-yl)-7-azaspiro[3.5]nonan-7-yl) benzamide]	0.3	0.3	0.71	2.4	0.15	0.68	0.33	1.1
CC(C)c1ccccc1C1CN(Cc2ccccn2)CCN1C1CC2(CCN(c3ccc(C(=O)NS(=O)(=O)c4ccc(NC[C@H]5CC[C@](C)(O)CC5)c([N+](=O)[O-])c4)c(Oc4cnc5[nH]ccc5c4)c3)CC2)C1 (some centres unmarked) [Example 131]	0.05	0.05	0.51	10	0.57	4.34	0.29	5.7
COc1ccc(CN2CCN(C3CC4(CCN(c5ccc(C(=O)NS(=O)(=O)c6ccc(NC[C@H]7CC[C@](C)(O)CC7)c([N+](=O)[O-])c6)c(Oc6cnc7[nH]ccc7c6)c5)CC4)C3)C(c3ccccc3C(C)C)C2)cc1C#N (some centres unmarked) [Example 132, 2-((1H-pyrrolo[2,3-b]pyridin-5-yl)oxy)-4-(2-(4-(3-cyano-4-methoxybenzyl)-2-(2-isopropylphenyl)piperazin-1-yl)-7-azaspiro[3.5]nonan-7-yl)-N-((4-((((1r,4r)-4-hydroxy-4-methylcyclohexyl)methyl)amino)-3-nitrophenyl)sulfonyl)benzamide]	0.26	0.26	0.92	3.5	0.31	2.05	0.47	1.3
COc1ccc(CN2CCN(C3CC4(CCN(c5ccc(C(=O)NS(=O)(=O)c6ccc(NC[C@H]7CC[C@](C)(O)CC7)c([N+](=O)[O-])c6)c(Oc6cnc7[nH]ccc7c6)c5)CC4)C3)C(c3ccccc3C(C)C)C2)cc1F (some centres unmarked) [Example 134, 2-((1H-pyrrolo[2,3-b]pyridin-5-yl)oxy)-4-(2-(4-(3-fluoro-4-methoxybenzyl)-2-(2-isopropylphenyl)piperazin-1-yl)-7-azaspiro[3.5]nonan-7-yl)-N-((4-((((1r,4r)-4-hydroxy-4-methylcyclohexyl)methyl)amino)-3-nitrophenyl)sulfonyl)benzamide]	0.35	0.35	1.3	3.8	0.4	3.1	0.67	1.9
